Reference: patent US8440660B2 (Santen Pharmaceutical Co., Ltd., priority 2006, dated 2013)

target: T1, Glucocorticoid Receptor (GR) (Homo sapiens, UniProt P04150); assay: GR receptor competitor assay by fluorescence polarization (Invitrogen GR competitor assay kit, cat No. P2816); conditions: 20 μM test compound solution, 10 μL per well plus 5 μL 4×GS1 and 5 μL 4×GR solution; recombinant human GR; 2 to 4 hours at room temperature; a ratio of 100% or more is indicated by 100%; read-out: GR Binding ratio (%)
T1 construct: purchased Invitrogen P2816
T1 sequence (P04150 1-777): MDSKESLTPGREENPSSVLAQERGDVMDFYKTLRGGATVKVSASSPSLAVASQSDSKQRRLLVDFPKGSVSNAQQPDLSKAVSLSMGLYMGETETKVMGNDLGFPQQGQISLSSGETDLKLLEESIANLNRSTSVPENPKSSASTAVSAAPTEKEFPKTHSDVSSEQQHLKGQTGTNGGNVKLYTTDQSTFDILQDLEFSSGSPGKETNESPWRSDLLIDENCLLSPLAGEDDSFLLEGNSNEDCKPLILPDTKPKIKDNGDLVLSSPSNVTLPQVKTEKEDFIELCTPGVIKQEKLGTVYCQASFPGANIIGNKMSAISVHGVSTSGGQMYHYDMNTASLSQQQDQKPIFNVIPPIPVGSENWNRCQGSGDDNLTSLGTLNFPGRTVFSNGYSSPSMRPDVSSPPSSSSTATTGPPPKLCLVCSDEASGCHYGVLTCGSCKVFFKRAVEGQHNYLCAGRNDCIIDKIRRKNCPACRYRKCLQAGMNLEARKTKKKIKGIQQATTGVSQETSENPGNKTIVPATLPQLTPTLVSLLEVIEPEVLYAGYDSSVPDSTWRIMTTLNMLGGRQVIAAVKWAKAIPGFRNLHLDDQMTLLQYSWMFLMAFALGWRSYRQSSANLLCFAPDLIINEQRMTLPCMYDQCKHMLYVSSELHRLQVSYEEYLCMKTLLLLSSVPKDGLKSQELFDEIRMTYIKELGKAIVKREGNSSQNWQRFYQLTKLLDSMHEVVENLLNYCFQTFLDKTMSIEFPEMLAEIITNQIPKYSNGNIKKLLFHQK
Procedure, shortened: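 Recombinant human GR with fluorescent ligand Fluormone GS1 in pH 7.4 phosphate buffer with molybdate, EDTA, DTT, stabilizing peptide and 2% DMSO; compound added as 20 μM solution (pre-mix). FP read after 2–4 h at room temperature in the dark. Binding ratio (%) normalized between buffer and dexamethasone controls.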

For COc1ccc([N+](=O)[O-])cc1OCc1c(-c2ccc(OS(=O)(=O)C3CC3)cc2OC)ccc2c1C(C)=CC(C)(C)N2 [Compound 4-19, 6-(4-Cyclopropylsulfonyloxy-2-methoxyphenyl)-5-(2-methoxy-5-nitrophenoxymethyl)-2,2,4-trimethyl-1,2-dihydroquinoline], which inhibition at 10 µM is on record?
The inhibition at 10 µM was 98%.

For COc1ccc([N+](=O)[O-])cc1OCc1c(-c2ccc(OS(=O)(=O)C(C)C)cc2OC)ccc2c1C(C)=CC(C)(C)N2 [Compound 4-20, 6-(4-Isopropylsulfonyloxy-2-methoxyphenyl)-5-(2-methoxy-5-nitrophenoxymethyl)-2,2,4-trimethyl-1,2-dihydroquinoline], which inhibition at 10 µM is on record?
The inhibition at 10 µM was 100%.

For CCS(=O)(=O)Oc1ccc(-c2ccc3c(c2COc2cc([N+](=O)[O-])ccc2C)C(C)=CC(C)(C)N3)c(OC)c1 [Compound 4-23, 6-(4-Ethylsulfonyloxy-2-methoxyphenyl)-5-(2-methyl-5-nitrophenoxymethyl)-2,2,4-trimethyl-1,2-dihydroquinoline], which inhibition at 10 µM is on record?
The inhibition at 10 µM was 100%.

How did the inhibition at 10 µM turn out when CCCS(=O)(=O)Oc1ccc(-c2ccc3c(c2COc2cc([N+](=O)[O-])ccc2C)C(C)=CC(C)(C)N3)c(OC)c1 [Compound 4-25, 6-(2-Methoxy-4-propylsulfonyloxyphenyl)-5-(2-methyl-5-nitrophenoxymethyl)-2,2,4-trimethyl-1,2-dihydroquinoline] was run?
The inhibition at 10 µM was 100%.

How did the inhibition at 10 µM turn out when COc1cc(OS(=O)(=O)C(C)C)ccc1-c1ccc2c(c1COc1cc([N+](=O)[O-])ccc1C)C(C)=CC(C)(C)N2 [Compound 4-26, 6-(4-Isopropylsulfonyloxy-2-methoxyphenyl)-5-(2-methyl-5-nitrophenoxymethyl)-2,2,4-trimethyl-1,2-dihydroquinoline] was run?
The inhibition at 10 µM was 100%.

Which inhibition at 10 µM does the source give for COc1cc(OS(=O)(=O)C2CC2)ccc1-c1ccc2c(c1COc1cc(F)ccc1C)C(C)=CC(C)(C)N2 [Compound 4-27, 6-(4-Cyclopropylsulfonyloxy-2-methoxyphenyl)-5-(5-fluoro-2-methylphenoxymethyl)-2,2,4-trimethyl-1,2-dihydroquinoline] here?
Its inhibition at 10 µM is 100%.

How did the inhibition at 10 µM turn out when COc1cc(OS(=O)(=O)CC(C)C)ccc1-c1ccc2c(c1COc1cc(F)ccc1C)C(C)=CC(C)(C)N2 [Compound 4-28, 5-(5-Fluoro-2-methylphenoxymethyl)-6-(4-isobutylsulfonyloxy-2-methoxyphenyl)-2,2,4-trimethyl-1,2-dihydroquinoline] was run?
Its inhibition at 10 µM is 100%.

COc1cc(OS(=O)(=O)C2CCCC2)ccc1-c1ccc2c(c1COc1cc(F)ccc1C)C(C)=CC(C)(C)N2 [Compound 4-29, 6-(4-Cyclopentylsulfonyloxy-2-methoxyphenyl)-5-(5-fluoro-2-methylphenoxymethyl)-2,2,4-trimethyl-1,2-dihydroquinoline] was tested. Which inhibition at 10 µM did it give?
Its inhibition at 10 µM is 100%.

For COc1cc(OS(=O)(=O)CCC(F)(F)F)ccc1-c1ccc2c(c1COc1cc(F)ccc1C)C(C)=CC(C)(C)N2 [Compound 4-30, 5-(5-Fluoro-2-methylphenoxymethyl)-6-[2-methoxy-4-(3,3,3-trifluoroproprylsulfonyloxy)phenyl]-2,2,4-trimethyl-1,2-dihydroquinoline], which inhibition at 10 µM is on record?
The inhibition at 10 µM was 100%.

With COc1ccccc1OC(=O)Oc1ccc(-c2ccc3c(c2COc2cc(F)ccc2C)C(C)=CC(C)(C)N3)c(OC)c1 [Compound 5-5, 5-(5-Fluoro-2-methylphenoxymethyl)-6-[2-methoxy-4-(2-methoxyphenoxycarbonyloxy)phenyl]-2,2,4-trimethyl-1,2-dihydroquinoline] as the compound, how does the inhibition at 10 µM read?
Its inhibition at 10 µM is 93%.

With COc1cc(OC(=O)Nc2ccccc2Cl)ccc1-c1ccc2c(c1COc1cc(F)ccc1C)C(C)=CC(C)(C)N2 [Compound 6-3, 6-[4-(2-Chlorophenylaminocarbonyloxy)-2-methoxyphenyl]-5-(5-fluoro-2-methylphenoxymethyl)-2,2,4-trimethyl-1,2-dihydroquinoline] as the compound, how does the inhibition at 10 µM read?
The inhibition at 10 µM was 98%.

Which inhibition at 10 µM does the source give for COc1cccc(NC(=O)Oc2ccc(-c3ccc4c(c3COc3cc(F)ccc3C)C(C)=CC(C)(C)N4)c(OC)c2)c1 [Compound 6-12, 5-(5-Fluoro-2-methylphenoxymethyl)-6-[2-methoxy-4-(3-methoxyphenylaminocarbonyloxy)phenyl]-2,2,4-trimethyl-1,2-dihydroquinoline] here?
The inhibition at 10 µM was 98%.

COc1ccc(NC(=O)Oc2ccc(-c3ccc4c(c3COc3cc(F)ccc3C)C(C)=CC(C)(C)N4)c(OC)c2)cc1 [Compound 6-13, 5-(5-Fluoro-2-methylphenoxymethyl)-6-[2-methoxy-4-(4-methoxyphenylaminocarbonyloxy)phenyl]-2,2,4-trimethyl-1,2-dihydroquinoline] was tested. Which inhibition at 10 µM did it give?
Its inhibition at 10 µM is 100%.

COC(=O)c1ccc(NC(=O)Oc2ccc(-c3ccc4c(c3COc3cc(F)ccc3C)C(C)=CC(C)(C)N4)c(OC)c2)cc1 [Compound 6-14, 5-(5-Fluoro-2-methylphenoxymethyl)-6-[2-methoxy-4-(4-methoxycarbonylphenylaminocarbonyloxy)phenyl]-2,2,4-trimethyl-1,2-dihydroquinoline] was tested. Which inhibition at 10 µM did it give?
Its inhibition at 10 µM is 88%.

How did the inhibition at 10 µM turn out when COc1cc(OC(=O)Nc2ccc(C#N)cc2)ccc1-c1ccc2c(c1COc1cc(F)ccc1C)C(C)=CC(C)(C)N2 [Compound 6-17, 6-[4-(4-Cyanophenylaminocarbonyloxy)-2-methoxyphenyl]-5-(5-fluoro-2-methylphenoxymethyl)-2,2,4-trimethyl-1,2-dihydroquinoline] was run?
The inhibition at 10 µM was 90%.

COc1cc(OC(=O)N2CCOCC2)ccc1-c1ccc2c(c1COc1cc(F)ccc1C)C(C)=CC(C)(C)N2 [Compound 6-18, 5-(5-Fluoro-2-methylphenoxymethyl)-6-[2-methoxy-4-(morpholin-4-ylcarbonyloxy)phenyl]-2,2,4-trimethyl-1,2-dihydroquinoline] was tested. Which inhibition at 10 µM did it give?
The inhibition at 10 µM was 100%.

How did the inhibition at 10 µM turn out when COc1cc(OC(=O)NC(C)C)ccc1-c1ccc2c(c1COc1cc(F)ccc1C)C(C)=CC(C)(C)N2 [Compound 6-21, 6-(4-Isopropylaminocarbonyloxy-2-methoxyphenyl)-5-(5-fluoro-2-methylphenoxymethyl)-2,2,4-trimethyl-1,2-dihydroquinoline] was run?
The inhibition at 10 µM was 92%.

Which inhibition at 10 µM does the source give for COc1ccc([N+](=O)[O-])cc1OCc1c(-c2ccc(OC(=O)N3CCOCC3)cc2OC)ccc2c1C(C)=CC(C)(C)N2 [Compound 6-28, 6-[2-Methoxy-4-(morpholin-4-ylcarbonyloxy)phenyl]-5-(2-methoxy-5-nitrophenoxymethyl)-2,2,4-trimethyl-1,2-dihydroquinoline] here?
Its inhibition at 10 µM is 100%.

For COc1cc(OC(=O)N2CCOCC2)ccc1-c1ccc2c(c1COc1cc([N+](=O)[O-])ccc1C)C(C)=CC(C)(C)N2 [Compound 6-30, 6-[2-Methoxy-4-(morpholin-4-ylcarbonyloxy)phenyl]-5-(2-methyl-5-nitrophenoxymethyl)-2,2,4-trimethyl-1,2-dihydroquinoline], which inhibition at 10 µM is on record?
The inhibition at 10 µM was 100%.
